Data: patent US20100267561A1, “HERBICIDAL PYRIDAZINONE DERIVATIVES” (priority 2007, published 2010)
Like-named read-outs stand apart in the source and are kept apart here.

Key:
Assay in all cases: Test B pre-/postemergence plant response
Type in all cases: in vivo
[1] = tested on: yellow nutsedge (Cyperus esculentus); settings: for pest or weed control at 31 g/ha / pest or weed control at 62 g/ha: Cyperus, read-out: Plant response rating, Nutsedge, Yellow; for pest or weed control at 31 g/ha: 31 g ai/ha; for pest or weed control at 62 g/ha: 62 g ai/ha, 100 complete control
In short: (§1)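 Preemergence and postemergence (plants 2-18 cm, 1- to 4-leaf stage) applications used test chemicals in a non-phytotoxic solvent with surfactant. Plants were held in a greenhouse 13 to 15 days, then rated visually against controls on a 0-100 scale (0 no effect, 100 complete control).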

wild oat (Avena fatua) = settings: for pest or weed control at 31 g/ha / pest or weed control at 62 g/ha: Avena fatua, read-out: Plant response rating, Oat, Wild; for pest or weed control at 31 g/ha: 31 g ai/ha; for pest or weed control at 62 g/ha: 62 g ai/ha, 100 complete control
In short: as §1

[2] = tested on: cocklebur (Xanthium strumarium); settings: for pest or weed control at 31 g/ha: 31 g ai/ha; for pest or weed control at 62 g/ha: 62 g ai/ha, 100 complete control
In short: as §1

[3] = tested on: common ragweed (Ambrosia elation); settings: for pest or weed control at 31 g/ha / pest or weed control at 62 g/ha: Ambrosia, read-out: Plant response rating, Ragweed; for pest or weed control at 31 g/ha: 31 g ai/ha; for pest or weed control at 62 g/ha: 62 g ai/ha, 100 complete control
In short: as §1

[4] = tested on: green foxtail (Setaria viridis); settings: for pest or weed control at 31 g/ha: 31 g ai/ha; for pest or weed control at 62 g/ha: 62 g ai/ha, 100 complete control
In short: as §1

[5] = tested on: surinam grass (Brachiaria decumbens); settings: for pest or weed control at 31 g/ha / pest or weed control at 62 g/ha: Urochloa decumbens, read-out: Plant response rating, Surinam Grass; for pest or weed control at 31 g/ha: 31 g ai/ha; for pest or weed control at 62 g/ha: 62 g ai/ha, 100 complete control
In short: as §1

[6] = tested on: lambsquarters (Chenopodium album); settings: for pest or weed control at 31 g/ha / pest or weed control at 62 g/ha: Chenopodium album, read-out: Plant response rating, Lambsquarters; for pest or weed control at 31 g/ha: 31 g ai/ha; for pest or weed control at 62 g/ha: 62 g ai/ha, 100 complete control
In short: as §1

corn (Zea mays) = settings: for Corn plant response rating (crop injury, 0 = no effect, 100 = complete kill) at 31 g/ha: 31 g ai/ha; for Corn plant response rating (crop injury, 0 = no effect, 100 = complete kill) at 62 g/ha: 62 g ai/ha, 100 complete control
In short: as §1

[7] = tested on: eastern black (E.B.) nightshade (Solanum ptycanthum); settings: Preemergence
In short: as §1

[8] = tested on: morningglory (Ipomoea coccinea); settings: for pest or weed control at 31 g/ha / pest or weed control at 62 g/ha: Ipomoea, read-out: Plant response rating, Morningglory; for pest or weed control at 31 g/ha: 31 g ai/ha; for pest or weed control at 62 g/ha: 62 g ai/ha, 100 complete control
In short: as §1

[9] = tested on: Italian ryegrass (Lolium multiflorum); settings: for pest or weed control at 31 g/ha / pest or weed control at 62 g/ha: Lolium multiflorum, read-out: Plant response rating, Ryegrass, Italian; for pest or weed control at 31 g/ha: 31 g ai/ha; for pest or weed control at 62 g/ha: 62 g ai/ha, 100 complete control
In short: as §1

[10] = tested on: catchweed bedstraw (Galium aparine); settings: Preemergence
In short: as §1

[11] = tested on: Russian thistle (Salsola iberica); settings: Preemergence
In short: as §1

[12] = 8 g ai/ha, postemergence, 0-100 scale
[13] = 16 g ai/ha, postemergence, 0-100 scale
[14] = post-emergence, Postemergence, scale 0 to 100
[15] = post-emergence, Postemergence, scale 0 to 100, 0 no effect
[16] = pre-emergence, Preemergence, scale 0 to 100 (0 no effect, 100 complete control)
[17] = pre-emergence, Preemergence, 0 to 100 scale, 0 no effect
[18] = Preemergence, 8 g ai/ha, scale 0 to 100 (0 no effect, 100 complete control)
[19] = Preemergence, 16 g ai/ha, scale 0 to 100
[20] = 8 g ai/ha, scale 0 to 100 (0 no effect, 100 complete control)

## Cc1cc(-c2ccc(Br)cc2)nn1-c1c(O)cn[nH]c1=O [Compound 78, 4-[3-(4-bromophenyl)-5-methyl-1H-pyrazol-1-yl]-5-hydroxy-3(2H)-pyridazinone]
[1]; [12]
  Nutsedge, Yellow plant response rating: 0
[1]; [13]
  Nutsedge, Yellow plant response rating: 0
[1]; [14]
  pest or weed control at 31 g/ha: 0%
[1]; [15]
  pest or weed control at 62 g/ha: 0%
[1]; [16]
  pest or weed control at 31 g/ha: 0%
[1]; [17]
  pest or weed control at 62 g/ha: 0%
[1]; [18]
  Nutsedge, Yellow plant response rating: 0
[1]; [19]
  Nutsedge, Yellow plant response rating: 0
Wild oat (Avena fatua); [12]
  Oat, Wild plant response rating: 98
Wild oat (Avena fatua); [13]
  Oat, Wild plant response rating: 100
Wild oat (Avena fatua); [14]
  pest or weed control at 31 g/ha: 100%
Wild oat (Avena fatua); [15]
  pest or weed control at 62 g/ha: 100%
Wild oat (Avena fatua); [16]
  pest or weed control at 31 g/ha: 70%
Wild oat (Avena fatua); [17]
  pest or weed control at 62 g/ha: 85%
Wild oat (Avena fatua); [18]
  Oat, Wild plant response rating: 30
Wild oat (Avena fatua); [19]
  Oat, Wild plant response rating: 40
[2]; [12]
  Cocklebur plant response rating: 0
[2]; [18]
  Cocklebur plant response rating: 0
[2]; [19]
  Cocklebur plant response rating: 0
[2]; Xanthium strumarium, post-emergence, Postemergence, 16 g ai/ha, scale 0 to 100, read-out: Plant response rating, Cocklebur
  pest or weed control at 16 g/ha: 0%
[2]; Xanthium strumarium, post-emergence, Postemergence, scale 0 to 100, read-out: Plant response rating, Cocklebur
  pest or weed control at 31 g/ha: 0%
[2]; Xanthium strumarium, post-emergence, Postemergence, scale 0 to 100, 0 no effect, read-out: Plant response rating, Cocklebur
  pest or weed control at 62 g/ha: 0%
[2]; Xanthium strumarium, pre-emergence, Preemergence, scale 0 to 100 (0 no effect, 100 complete control), read-out: Plant response rating, Cocklebur
  pest or weed control at 31 g/ha: 0%
[2]; Xanthium strumarium, pre-emergence, Preemergence, 0 to 100 scale, 0 no effect, read-out: Plant response rating, Cocklebur
  pest or weed control at 62 g/ha: 0%
[3]; [12]
  Ragweed plant response rating: 0
[3]; [13]
  Ragweed plant response rating: 0
[3]; [14]
  pest or weed control at 31 g/ha: 0%
[3]; [15]
  pest or weed control at 62 g/ha: 60%
[3]; [16]
  pest or weed control at 31 g/ha: 0%
[3]; [17]
  pest or weed control at 62 g/ha: 0%
[3]; [18]
  Ragweed plant response rating: 0
[3]; [19]
  Ragweed plant response rating: 0
[4]; [12]
  Foxtail, Green plant response rating: 40
[4]; [18]
  Foxtail, Green plant response rating: 100
[4]; [19]
  Foxtail, Green plant response rating: 100
[4]; Setaria viridis, post-emergence, Postemergence, 16 g ai/ha, scale 0 to 100, read-out: Plant response rating, Foxtail, Green
  pest or weed control at 16 g/ha: 60%
[4]; Setaria viridis, post-emergence, Postemergence, scale 0 to 100, read-out: Plant response rating, Foxtail, Green
  pest or weed control at 31 g/ha: 80%
[4]; Setaria viridis, post-emergence, Postemergence, scale 0 to 100, 0 no effect, read-out: Plant response rating, Foxtail, Green
  pest or weed control at 62 g/ha: 100%
[4]; Setaria viridis, pre-emergence, Preemergence, scale 0 to 100 (0 no effect, 100 complete control), read-out: Plant response rating, Foxtail, Green
  pest or weed control at 31 g/ha: 100%
[4]; Setaria viridis, pre-emergence, Preemergence, 0 to 100 scale, 0 no effect, read-out: Plant response rating, Foxtail, Green
  pest or weed control at 62 g/ha: 100%
[5]; [12]
  Surinam Grass plant response rating: 98
[5]; [13]
  Surinam Grass plant response rating: 100
[5]; [18]
  Surinam Grass plant response rating: 95
[5]; [19]
  Surinam Grass plant response rating: 95
[5]; [14]
  pest or weed control at 31 g/ha: 100%
[5]; [15]
  pest or weed control at 62 g/ha: 100%
[5]; [16]
  pest or weed control at 31 g/ha: 100%
[5]; [17]
  pest or weed control at 62 g/ha: 100%
[6]; [12]
  Lambsquarters plant response rating: 0
[6]; [13]
  Lambsquarters plant response rating: 0
[6]; [14]
  pest or weed control at 31 g/ha: 0%
[6]; [15]
  pest or weed control at 62 g/ha: 0%
[6]; [16]
  pest or weed control at 31 g/ha: 0%
[6]; [17]
  pest or weed control at 62 g/ha: 0%
[6]; [18]
  Lambsquarters plant response rating: 0
[6]; [19]
  Lambsquarters plant response rating: 0
Corn (Zea mays); [12]
  Corn plant response rating: 40
Corn (Zea mays); [18]
  Corn plant response rating: 55
Corn (Zea mays); [19]
  Corn plant response rating: 85
Corn (Zea mays); Zea mays, post-emergence, Postemergence, 16 g ai/ha, scale 0 to 100
  Corn plant response rating (crop injury, 0 = no effect, 100 = complete kill) at 16 g/ha: 100%
Corn (Zea mays); Zea mays, post-emergence, Postemergence, scale 0 to 100
  Corn plant response rating (crop injury, 0 = no effect, 100 = complete kill) at 31 g/ha: 100%
Corn (Zea mays); Zea mays, post-emergence, Postemergence, scale 0 to 100, 0 no effect
  Corn plant response rating (crop injury, 0 = no effect, 100 = complete kill) at 62 g/ha: 100%
Corn (Zea mays); Zea mays, pre-emergence, Preemergence, scale 0 to 100 (0 no effect, 100 complete control)
  Corn plant response rating (crop injury, 0 = no effect, 100 = complete kill) at 31 g/ha: 100%
Corn (Zea mays); Zea mays, pre-emergence, Preemergence, 0 to 100 scale, 0 no effect
  Corn plant response rating (crop injury, 0 = no effect, 100 = complete kill) at 62 g/ha: 100%
[7]; [20]
  Nightshade, E. B. plant response rating: 0
[7]; 16 g ai/ha, scale 0 to 100
  Nightshade, E. B. plant response rating: 0
[7]; Solanum, pre-emergence, 31 g ai/ha, scale 0 to 100 (0 no effect, 100 complete control), read-out: Plant response rating, Nightshade, E. B.
  pest or weed control at 31 g/ha: 0%
[7]; Solanum, pre-emergence, 62 g ai/ha, 0 to 100 scale, 0 no effect, 100 complete control, read-out: Plant response rating, Nightshade, E. B.
  pest or weed control at 62 g/ha: 55%
[8]; [12]
  Morningglory plant response rating: 0
[8]; [13]
  Morningglory plant response rating: 0
[8]; [14]
  pest or weed control at 31 g/ha: 0%
[8]; [15]
  pest or weed control at 62 g/ha: 0%
[8]; [16]
  pest or weed control at 31 g/ha: 0%
[8]; [17]
  pest or weed control at 62 g/ha: 0%
[8]; [18]
  Morningglory plant response rating: 0
[8]; [19]
  Morningglory plant response rating: 0
[9]; [12]
  Ryegrass, Italian plant response rating: 90
[9]; [13]
  Ryegrass, Italian plant response rating: 98
[9]; [14]
  pest or weed control at 31 g/ha: 100%
[9]; [15]
  pest or weed control at 62 g/ha: 100%
[9]; [16]
  pest or weed control at 31 g/ha: 100%
[9]; [17]
  pest or weed control at 62 g/ha: 100%
[9]; [18]
  Ryegrass, Italian plant response rating: 98
[9]; [19]
  Ryegrass, Italian plant response rating: 98
[10]; Galium aparine, pre-emergence, 31 g ai/ha, scale 0 to 100 (0 no effect, 100 complete control), read-out: Plant response rating, Galium
  pest or weed control at 31 g/ha: 0%
[10]; Galium aparine, pre-emergence, 62 g ai/ha, 0 to 100 scale, 0 no effect, 100 complete control, read-out: Plant response rating, Galium
  pest or weed control at 62 g/ha: 0%
[10]; [20]
  Galium plant response rating: 0
[10]; 16 g ai/ha, scale 0 to 100
  Galium plant response rating: 0
[11]; [20]
  Russian Thistle plant response rating: 0
[11]; 31 g ai/ha, scale 0 to 100 (0 no effect, 100 complete control)
  Plant response rating, Russian Thistle: 0
[11]; 62 g ai/ha, 0 to 100 scale, 0 no effect, 100 complete control
  Plant response rating, Russian Thistle: 0
[11]; 16 g ai/ha, scale 0 to 100
  Russian Thistle plant response rating: 0
